Data: ChEMBL document CHEMBL1130502, “Lipopeptide antifungal agents: Amine conjugates of the semi-synthetic pneumocandins L-731,373 and L-733,560” (Bioorg Med Chem Lett, 1997)
Values after ≈ are worked out from the molar mass of the structure shown.

Experiments:
1,3-beta-glucan synthase = 1,3-beta-glucan synthase (Candida glabrata, UniProt F5BCZ9); assay: Inhibition of 1,3-beta-glucan synthase; set-up: species or system Candida glabrata CBS 138
Candida albicans = assay: Tested for minimum fungicidal concentration (MFC) against Candida albicans (MY 1055); type: functional
Mus musculus [1] = species: Mus musculus; assay: […] anti-candida activity expressed as ED99.9 in a mouse model of disseminated candidiasis (TOKA); type: functional
Mus musculus [2] = species: Mus musculus; assay: Percentage of mice with complete eradication of candida in kidneys; type: functional, Kidney
[3] = Acute toxicity in mice after intravenous administration; details: mouse, in vivo
Mus musculus [4] = assay: In vivo effective intraperitoneal dose to achieve least 50% survival in a mouse model of disseminated aspergillosis; type: functional; details: ip

Chain of 1,3-beta-glucan synthase (F5BCZ9 whole entry): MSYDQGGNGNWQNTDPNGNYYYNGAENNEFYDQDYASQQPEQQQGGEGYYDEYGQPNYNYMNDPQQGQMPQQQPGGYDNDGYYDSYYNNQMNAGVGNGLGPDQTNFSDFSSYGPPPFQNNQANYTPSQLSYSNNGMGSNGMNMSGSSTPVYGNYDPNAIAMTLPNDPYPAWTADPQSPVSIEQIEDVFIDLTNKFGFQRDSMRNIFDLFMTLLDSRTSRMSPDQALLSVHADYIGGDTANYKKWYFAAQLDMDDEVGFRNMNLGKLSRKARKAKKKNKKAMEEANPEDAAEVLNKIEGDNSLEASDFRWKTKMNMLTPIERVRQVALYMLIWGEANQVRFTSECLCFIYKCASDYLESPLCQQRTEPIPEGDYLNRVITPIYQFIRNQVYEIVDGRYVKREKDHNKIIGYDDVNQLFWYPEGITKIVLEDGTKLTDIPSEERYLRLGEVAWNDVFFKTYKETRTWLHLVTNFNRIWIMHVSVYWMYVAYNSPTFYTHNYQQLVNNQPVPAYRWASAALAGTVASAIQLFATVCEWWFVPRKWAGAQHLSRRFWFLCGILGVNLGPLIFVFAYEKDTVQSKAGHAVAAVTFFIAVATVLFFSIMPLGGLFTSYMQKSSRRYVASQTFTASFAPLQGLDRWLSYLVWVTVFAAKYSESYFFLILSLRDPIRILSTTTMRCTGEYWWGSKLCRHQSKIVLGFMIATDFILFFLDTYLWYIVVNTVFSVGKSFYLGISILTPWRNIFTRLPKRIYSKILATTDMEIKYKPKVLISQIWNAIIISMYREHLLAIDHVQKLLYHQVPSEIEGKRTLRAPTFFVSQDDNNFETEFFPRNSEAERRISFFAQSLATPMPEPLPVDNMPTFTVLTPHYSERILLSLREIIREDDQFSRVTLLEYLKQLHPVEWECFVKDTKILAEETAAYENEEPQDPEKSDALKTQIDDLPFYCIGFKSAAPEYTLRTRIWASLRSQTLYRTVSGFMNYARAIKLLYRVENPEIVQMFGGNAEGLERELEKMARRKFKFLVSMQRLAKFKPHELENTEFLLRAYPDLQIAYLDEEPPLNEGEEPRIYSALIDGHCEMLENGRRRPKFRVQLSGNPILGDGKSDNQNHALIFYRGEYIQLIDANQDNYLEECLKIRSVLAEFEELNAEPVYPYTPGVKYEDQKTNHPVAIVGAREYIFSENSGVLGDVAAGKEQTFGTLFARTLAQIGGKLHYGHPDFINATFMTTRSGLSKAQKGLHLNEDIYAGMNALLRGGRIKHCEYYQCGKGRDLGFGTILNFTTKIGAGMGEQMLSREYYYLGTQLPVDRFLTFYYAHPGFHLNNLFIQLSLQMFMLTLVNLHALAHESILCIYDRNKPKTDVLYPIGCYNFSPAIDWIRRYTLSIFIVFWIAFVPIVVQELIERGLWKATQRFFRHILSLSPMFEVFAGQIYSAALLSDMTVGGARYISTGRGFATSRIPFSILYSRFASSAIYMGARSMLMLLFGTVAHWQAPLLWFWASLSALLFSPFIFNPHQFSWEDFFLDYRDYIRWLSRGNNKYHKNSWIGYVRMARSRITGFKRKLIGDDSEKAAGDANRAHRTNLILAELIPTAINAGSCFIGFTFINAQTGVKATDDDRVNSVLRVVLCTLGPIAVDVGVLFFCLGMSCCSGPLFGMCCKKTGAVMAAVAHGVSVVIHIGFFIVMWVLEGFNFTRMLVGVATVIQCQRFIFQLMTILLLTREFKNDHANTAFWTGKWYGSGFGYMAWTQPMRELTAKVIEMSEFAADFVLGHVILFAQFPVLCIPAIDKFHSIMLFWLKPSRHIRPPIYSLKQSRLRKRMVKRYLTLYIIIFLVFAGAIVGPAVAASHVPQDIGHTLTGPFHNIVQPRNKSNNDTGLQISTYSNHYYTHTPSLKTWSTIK

Question: Which IC50 (1,3-beta-glucan synthase) does the source give for CCC(C)CC(C)CCCCCCCCC(=O)NC1C[C@@H](O)[C@@H](O)NC(=O)C2CN(C[C@@H]2O)C(=O)[C@H]([C@H](O)CCNC(=O)[C@@H](N)CCCCN)NC(=O)[C@H]([C@H](O)[C@@H](O)c2ccc(O)cc2)NC(=O)C2C[C@@H](O)CN2C(=O)[C@H]([C@@H](C)O)NC1=O (stereo partly specified) here?
Answer: 10 nM

Question: What about the MFC (Candida albicans) of the same compound?
Answer: < 0.06 µg/mL

Question: What about the ED99.9 (Mus musculus [1]) of the same compound?
Answer: 0.375 mg/kg

Question: And the Sterilized (Mus musculus [2])?
Answer: 20%

Question: And the Dose [3]?
Answer: 150 mg/kg

Question: Which IC50 (1,3-beta-glucan synthase) does the source give for CCC(C)CC(C)CCCCCCCCC(=O)NC1C[C@@H](O)[C@@H](O)NC(=O)C2CN(C[C@@H]2O)C(=O)[C@H]([C@H](O)CCNC(=O)CCCN)NC(=O)[C@H]([C@H](O)[C@@H](O)c2ccc(O)cc2)NC(=O)C2C[C@@H](O)CN2C(=O)[C@H]([C@@H](C)O)NC1=O (stereo partly specified) here?
Answer: 50 nM

Question: And the MFC (Candida albicans)?
Answer: < 0.06 µg/mL

Question: What about the ED99.9 (Mus musculus [1]) of the same compound?
Answer: 1.5 mg/kg

Question: And the Sterilized (Mus musculus [2])?
Answer: 40%

Question: What about the Dose [3] of the same compound?
Answer: > 100 mg/kg

Question: What does the source list for CCC(C)CC(C)CCCCCCCCC(=O)NC1C[C@@H](O)[C@@H](O)NC(=O)C2CN(C[C@@H]2O)C(=O)[C@H]([C@H](O)CCNC(=O)CCN)NC(=O)[C@H]([C@H](O)[C@@H](O)c2ccc(O)cc2)NC(=O)C2C[C@@H](O)CN2C(=O)[C@H]([C@@H](C)O)NC1=O (stereo partly specified)?
Answer: IC50 (1,3-beta-glucan synthase): 25 nM; MFC (Candida albicans): 0.125 µg/mL (≈ 0.111 µM); ED99.9 (Mus musculus [1]): 1.5 mg/kg; Sterilized (Mus musculus [2]): 100%; Dose [3]: 250 mg/kg

Question: What does the source list for CCC(C)CC(C)CCCCCCCCC(=O)NC1C[C@@H](O)[C@@H](O)NC(=O)C2CN(C[C@@H]2O)C(=O)[C@H]([C@H](O)CCNC(=O)CCCCCN)NC(=O)[C@H]([C@H](O)[C@@H](O)c2ccc(O)cc2)NC(=O)C2C[C@@H](O)CN2C(=O)[C@H]([C@@H](C)O)NC1=O (stereo partly specified)?
Answer: IC50 (1,3-beta-glucan synthase): 90 nM; MFC (Candida albicans): 0.5 µg/mL (≈ 0.429 µM); ED99.9 (Mus musculus [1]): >1.5 mg/kg; Sterilized (Mus musculus [2]): 0%; Dose [3]: 250 mg/kg

Question: Which results are given for CCC(C)CC(C)CCCCCCCCC(=O)NC1C[C@@H](O)[C@@H](OCCN)NC(=O)C2CN(C[C@@H]2O)C(=O)[C@H]([C@H](O)CCNC(=O)[C@@H](N)CCCCN)NC(=O)[C@H]([C@H](O)[C@@H](O)c2ccc(O)cc2)NC(=O)C2C[C@@H](O)CN2C(=O)[C@H]([C@@H](C)O)NC1=O (stereo partly specified)?
Answer: IC50 (1,3-beta-glucan synthase): 3 nM; MFC (Candida albicans): 0.125 µg/mL (≈ 0.102 µM); ED99.9 (Mus musculus [1]): 0.09 mg/kg; ED50 (Mus musculus [4]): < 0.02 mg/kg; Sterilized (Mus musculus [2]): 0%; Dose [3]: 60 mg/kg

Question: Which IC50 (1,3-beta-glucan synthase) does the source give for CCC(C)CC(C)CCCCCCCCC(=O)NC1C[C@@H](O)[C@@H](OCCN)NC(=O)C2CN(C[C@@H]2O)C(=O)[C@H]([C@H](O)CCNC(=O)[C@@H](N)CN)NC(=O)[C@H]([C@H](O)[C@@H](O)c2ccc(O)cc2)NC(=O)C2C[C@@H](O)CN2C(=O)[C@H]([C@@H](C)O)NC1=O (stereo partly specified) here?
Answer: 4 nM

Question: What about the MFC (Candida albicans) of the same compound?
Answer: 1 µg/mL (≈ 0.847 µM)

Question: And the ED99.9 (Mus musculus [1])?
Answer: 0.375 mg/kg

Question: What about the ED50 (Mus musculus [4]) of the same compound?
Answer: 0.07 mg/kg

Question: And the Sterilized (Mus musculus [2])?
Answer: 100%

Question: And the Dose [3]?
Answer: > 100 mg/kg

Question: What does the source list for CCC(C)CC(C)CCCCCCCCC(=O)NC1C[C@@H](O)[C@@H](O)NC(=O)C2CN(C[C@@H]2O)C(=O)[C@H]([C@H](O)CCNC(=O)CCCCCCN)NC(=O)[C@H]([C@H](O)[C@@H](O)c2ccc(O)cc2)NC(=O)C2C[C@@H](O)CN2C(=O)[C@H]([C@@H](C)O)NC1=O (stereo partly specified)?
Answer: MFC (Candida albicans): 2 µg/mL (≈ 1.7 µM); ED99.9 (Mus musculus [1]): >1.5 mg/kg; Sterilized (Mus musculus [2]): 0%; Dose [3]: 200 mg/kg

Question: With CCC(C)CC(C)CCCCCCCCC(=O)NC1C[C@@H](O)[C@@H](O)NC(=O)C2CN(C[C@@H]2O)C(=O)[C@H]([C@H](O)CCNC(=O)[C@@H](N)CCN)NC(=O)[C@H]([C@H](O)[C@@H](O)c2ccc(O)cc2)NC(=O)C2C[C@@H](O)CN2C(=O)[C@H]([C@@H](C)O)NC1=O (stereo partly specified) as the compound, how does the IC50 (1,3-beta-glucan synthase) read?
Answer: 60 nM

Question: What about the MFC (Candida albicans) of the same compound?
Answer: 0.25 µg/mL (≈ 0.217 µM)

Question: What about the ED99.9 (Mus musculus [1]) of the same compound?
Answer: 0.375 mg/kg

Question: What about the Sterilized (Mus musculus [2]) of the same compound?
Answer: 60%

Question: What about the Dose [3] of the same compound?
Answer: > 250 mg/kg
